Results taken from ChEMBL document CHEMBL5126594, “Entry inhibition of hepatitis B virus using cyclosporin O derivatives with peptoid side chain incorporation” (Bioorg Med Chem, 2022).

What was measured:
CYP2C9 = CYP2C9 (Homo sapiens, UniProt P11712); experiment: Inhibition of human CYP2C9 at 10 uM preincubated for 10 mins followed by NADPH addition and measured after 20 mins by luciferin reagent based luminescence analysis; format: ADME; conditions: time 30 min
CYP1A2 = target: T1, CYP1A2 (Homo sapiens, UniProt P05177); experiment: Inhibition of human CYP1A2 at 10 uM preincubated for 10 mins followed by NADPH addition and measured after 20 mins by luciferin reagent based luminescence analysis; format: ADME; conditions: time 30 min
T1 sequence (P05177 whole entry): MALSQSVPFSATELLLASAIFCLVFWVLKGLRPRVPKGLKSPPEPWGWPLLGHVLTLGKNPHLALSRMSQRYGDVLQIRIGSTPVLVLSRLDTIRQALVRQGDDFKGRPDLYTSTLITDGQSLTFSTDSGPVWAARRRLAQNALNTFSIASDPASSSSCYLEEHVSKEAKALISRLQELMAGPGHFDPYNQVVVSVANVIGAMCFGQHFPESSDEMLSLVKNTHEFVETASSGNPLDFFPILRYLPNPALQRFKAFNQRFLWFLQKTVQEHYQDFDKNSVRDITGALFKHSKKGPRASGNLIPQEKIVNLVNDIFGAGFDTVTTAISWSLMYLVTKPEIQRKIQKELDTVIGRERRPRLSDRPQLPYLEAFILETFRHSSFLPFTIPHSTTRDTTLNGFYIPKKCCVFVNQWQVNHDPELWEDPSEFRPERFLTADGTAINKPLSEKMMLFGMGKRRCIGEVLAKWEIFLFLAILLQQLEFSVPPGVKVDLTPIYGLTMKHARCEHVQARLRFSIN

hERG (KCNH2) [1] = target: T2, hERG (KCNH2) (Homo sapiens, UniProt Q12809); experiment: in vitro
Description: Inhibition of hERG at 10 uM incubated for 2 hrs by fluorescence polarization based assay relative to control

hERG (KCNH2) [2] = target: T2, hERG (KCNH2); experiment: Inhibition of hERG incubated for 2 hrs by fluorescence polarization based assay; format: toxicity
CYP3A4 = CYP3A4 (Homo sapiens, UniProt P08684); experiment: Inhibition of human CYP3A4 at 10 uM preincubated for 10 mins followed by NADPH addition and measured after 20 mins by luciferin reagent based luminescence analysis; format: ADME; conditions: time 30 min
CYP2C19 = CYP2C19 (Homo sapiens, UniProt P33261); experiment: Inhibition of human CYP2C19 at 10 uM preincubated for 10 mins followed by NADPH addition and measured after 20 mins by luciferin reagent based luminescence analysis; format: ADME; conditions: time 30 min
CYP2D6 = CYP2D6 (Homo sapiens, UniProt P10635); experiment: Inhibition of human CYP2D6 at 10 uM preincubated for 10 mins followed by NADPH addition and measured after 20 mins by luciferin reagent based luminescence analysis; format: ADME; conditions: time 30 min
Hepatitis B virus [3] = experiment: Antiviral activity against Hepatitis B virus infected in human HepG2 cells expressing NTCP assessed as inhibition of viral entry by measuring intracellular HBV DNA at 1 uM preincubated with compound for 2 hrs followed by viral infection and measured after 3 hrs by qPCR analysis relative to control; format: functional; conditions: time 5 hrs
[4] = Cytotoxicity against human HepG2 cells assessed as reduction in cell viability incubated for 24 hrs by MTS assay; format: toxicity, cell-based; conditions: read-out: LC50
Hepatitis B virus [5] = experiment: Antiviral activity against Hepatitis B virus infected in human HepG2 cells expressing NTCP assessed as inhibition of viral entry by measuring intracellular HBV DNA preincubated with compound for 2 hrs followed by viral infection and measured after 3 hrs by qPCR analysis; format: functional, organism-based

CYP2D6, sequence (P10635 whole entry): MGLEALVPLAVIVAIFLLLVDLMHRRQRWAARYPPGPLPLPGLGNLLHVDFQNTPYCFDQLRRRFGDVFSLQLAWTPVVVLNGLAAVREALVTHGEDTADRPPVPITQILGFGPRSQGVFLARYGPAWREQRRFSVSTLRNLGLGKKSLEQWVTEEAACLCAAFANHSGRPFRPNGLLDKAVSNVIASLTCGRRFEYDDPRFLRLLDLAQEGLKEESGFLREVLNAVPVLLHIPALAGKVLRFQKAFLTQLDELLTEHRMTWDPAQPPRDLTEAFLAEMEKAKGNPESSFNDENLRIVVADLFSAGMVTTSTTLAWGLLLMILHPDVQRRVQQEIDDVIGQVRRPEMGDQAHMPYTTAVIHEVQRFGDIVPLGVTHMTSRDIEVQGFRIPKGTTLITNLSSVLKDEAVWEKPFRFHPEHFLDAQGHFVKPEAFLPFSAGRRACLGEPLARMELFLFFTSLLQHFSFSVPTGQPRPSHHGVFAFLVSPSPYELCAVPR
CYP2C9, sequence (P11712 whole entry): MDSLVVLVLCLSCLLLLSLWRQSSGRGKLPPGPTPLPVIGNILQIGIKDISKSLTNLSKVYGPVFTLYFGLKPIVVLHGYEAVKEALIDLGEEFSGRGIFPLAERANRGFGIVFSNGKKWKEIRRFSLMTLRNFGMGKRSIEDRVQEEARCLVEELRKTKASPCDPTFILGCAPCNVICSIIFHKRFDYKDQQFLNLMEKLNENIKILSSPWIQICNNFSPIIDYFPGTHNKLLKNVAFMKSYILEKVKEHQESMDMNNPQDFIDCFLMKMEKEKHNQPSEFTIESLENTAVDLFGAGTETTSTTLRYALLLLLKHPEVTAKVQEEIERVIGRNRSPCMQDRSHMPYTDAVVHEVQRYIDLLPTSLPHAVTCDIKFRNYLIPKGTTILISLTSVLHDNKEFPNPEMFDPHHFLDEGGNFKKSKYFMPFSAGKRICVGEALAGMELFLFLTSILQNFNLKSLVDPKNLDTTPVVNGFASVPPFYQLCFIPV
T2 sequence (Q12809 whole entry): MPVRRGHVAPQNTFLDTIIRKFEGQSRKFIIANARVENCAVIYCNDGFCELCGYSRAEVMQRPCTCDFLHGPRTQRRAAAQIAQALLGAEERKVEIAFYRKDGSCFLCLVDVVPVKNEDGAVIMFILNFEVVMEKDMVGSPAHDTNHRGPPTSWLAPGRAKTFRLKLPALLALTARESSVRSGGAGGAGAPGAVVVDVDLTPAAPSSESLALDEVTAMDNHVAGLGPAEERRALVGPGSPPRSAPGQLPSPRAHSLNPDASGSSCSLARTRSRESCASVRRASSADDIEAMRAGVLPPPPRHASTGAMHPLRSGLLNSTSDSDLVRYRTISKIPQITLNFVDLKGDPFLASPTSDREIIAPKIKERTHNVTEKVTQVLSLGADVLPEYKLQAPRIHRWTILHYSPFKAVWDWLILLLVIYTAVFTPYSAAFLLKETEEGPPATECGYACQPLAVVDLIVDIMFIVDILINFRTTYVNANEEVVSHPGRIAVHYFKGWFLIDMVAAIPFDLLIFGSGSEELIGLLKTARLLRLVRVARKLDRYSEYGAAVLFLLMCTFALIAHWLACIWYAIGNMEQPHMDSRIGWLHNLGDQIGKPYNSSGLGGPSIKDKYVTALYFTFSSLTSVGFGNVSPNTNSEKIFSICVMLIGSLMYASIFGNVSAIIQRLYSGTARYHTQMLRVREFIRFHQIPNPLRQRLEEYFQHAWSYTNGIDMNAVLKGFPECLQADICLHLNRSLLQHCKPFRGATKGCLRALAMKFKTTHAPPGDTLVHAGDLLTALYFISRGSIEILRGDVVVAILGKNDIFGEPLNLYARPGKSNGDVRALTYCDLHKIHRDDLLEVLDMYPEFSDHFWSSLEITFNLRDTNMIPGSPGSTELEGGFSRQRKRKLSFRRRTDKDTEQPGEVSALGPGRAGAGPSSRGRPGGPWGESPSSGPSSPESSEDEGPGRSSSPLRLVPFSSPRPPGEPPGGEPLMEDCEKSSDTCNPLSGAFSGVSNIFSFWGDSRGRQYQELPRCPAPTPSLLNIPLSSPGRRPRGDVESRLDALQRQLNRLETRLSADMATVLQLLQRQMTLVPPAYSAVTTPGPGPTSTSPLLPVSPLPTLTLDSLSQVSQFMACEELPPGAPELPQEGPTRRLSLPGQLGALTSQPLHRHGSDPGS
CYP2C19, sequence (P33261 whole entry): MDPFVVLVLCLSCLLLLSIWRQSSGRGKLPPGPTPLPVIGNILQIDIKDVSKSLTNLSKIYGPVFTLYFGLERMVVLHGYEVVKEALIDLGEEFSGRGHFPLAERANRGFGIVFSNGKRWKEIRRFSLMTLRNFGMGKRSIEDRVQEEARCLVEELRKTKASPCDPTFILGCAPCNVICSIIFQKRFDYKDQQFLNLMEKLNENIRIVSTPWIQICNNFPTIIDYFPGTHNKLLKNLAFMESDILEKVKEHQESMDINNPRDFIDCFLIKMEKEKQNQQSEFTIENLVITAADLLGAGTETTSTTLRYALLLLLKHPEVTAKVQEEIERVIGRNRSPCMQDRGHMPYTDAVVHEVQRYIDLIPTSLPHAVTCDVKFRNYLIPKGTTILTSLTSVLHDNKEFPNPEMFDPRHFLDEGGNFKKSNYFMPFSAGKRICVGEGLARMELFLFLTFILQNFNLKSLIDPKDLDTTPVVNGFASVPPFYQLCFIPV
CYP3A4, sequence (P08684 whole entry): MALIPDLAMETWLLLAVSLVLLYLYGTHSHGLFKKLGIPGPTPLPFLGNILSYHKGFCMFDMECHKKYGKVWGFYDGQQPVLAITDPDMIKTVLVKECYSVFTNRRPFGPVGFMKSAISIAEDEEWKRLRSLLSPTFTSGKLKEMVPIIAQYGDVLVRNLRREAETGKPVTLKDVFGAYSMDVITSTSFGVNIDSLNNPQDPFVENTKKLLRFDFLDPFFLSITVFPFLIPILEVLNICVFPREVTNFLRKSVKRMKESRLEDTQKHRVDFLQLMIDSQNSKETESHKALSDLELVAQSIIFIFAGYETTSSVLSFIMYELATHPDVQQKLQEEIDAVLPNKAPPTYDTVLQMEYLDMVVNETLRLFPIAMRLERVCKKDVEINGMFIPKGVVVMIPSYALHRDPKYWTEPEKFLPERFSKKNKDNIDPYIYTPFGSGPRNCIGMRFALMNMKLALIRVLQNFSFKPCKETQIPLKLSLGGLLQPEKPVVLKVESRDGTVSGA

SMILES	inhibition at 20 min, 10 µM (CYP2C9) [%]	inhibition at 20 min, 10 µM (CYP1A2) [%]	inhibition at 20 min, 10 µM (CYP2C19) [%]	inhibition at 20 min, 10 µM (CYP2D6) [%]	other results
CCC[C@@H]1NC(=O)[C@H](CC(C)C)N(C)C(=O)[C@H](CC(C)C)N(C)C(=O)CN(CCO)C(=O)[C@H](CC(C)C)N(C)C(=O)[C@@H](C)NC(=O)[C@@H](CCC(N)=O)NC(=O)[C@H](CC(C)C)N(C)C(=O)[C@H](C(C)C)NC(=O)[C@H](CC(C)C)N(C)C(=O)CN(C)C1=O	14.8	8.4	29.4	35.1	inhibition at 2 h, 10 µM (hERG (KCNH2) [1]): 19.1%; EC50 at 2 h (hERG (KCNH2) [2]): > 10 µM; inhibition at 20 min, 10 µM (CYP3A4): 35.5%; inhibition at 1 µM (Hepatitis B virus [3]): 78%; CC50 at 24 h [4]: > 200 µM; IC50 (Hepatitis B virus [5]): 360 nM
O=c1cc(-c2ccccc2)oc2c1ccc1ccccc12 [ALPHA-NAPHTHOFLAVONE]		97.1			
CN(C)CCC=C1c2ccccc2CCc2ccccc21 [AMITRIPTYLINE]			92.1		
C=C[C@H]1C[N@@]2CC[C@H]1C[C@@H]2[C@@H](O)c1ccnc2ccc(OC)cc12 [QUINIDINE]				97.5	
Nc1ccc(S(=O)(=O)Nc2ccnn2-c2ccccc2)cc1 [SULFAPHENAZOLE]	94.4				
